# According to PubChem BioAssay (NCI):
#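 Cells were grown in 96-well plates and exposed to each compound for 48 hours at five concentrations; endpoints were interpolated linearly between bracketing concentrations, or set to the highest concentration if not reached. Here, GI50 denotes the concentration required for 50% inhibition of growth. TGI marks complete inhibition of growth.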
# Tests used:
# Test in all cases: inhibition of tumour cell growth, NCI panel, 48 h
# 786-0 renal = system: 786-0 renal
# A498 renal = system: A498 renal
# A549 NSCLC = system: A549 NSCLC
# ACHN renal = system: ACHN renal
# BT-549 breast = system: BT-549 breast
# CAKI-1 renal = system: CAKI-1 renal
# CCRF-CEM leukemia = system: CCRF-CEM leukemia
# COLO 205 colon = system: COLO 205 colon
# DU-145 prostate = system: DU-145 prostate
# EKVX NSCLC = system: EKVX NSCLC
# HCC-2998 colon = system: HCC-2998 colon
# HCT-116 colon = system: HCT-116 colon
# HCT-15 colon = system: HCT-15 colon
# HL-60(TB) leukemia = system: HL-60(TB) leukemia
# HOP-62 NSCLC = system: HOP-62 NSCLC
# HOP-92 NSCLC = system: HOP-92 NSCLC
# HS 578T breast = system: HS 578T breast
# HT29 colon = system: HT29 colon
# IGROV1 ovarian = system: IGROV1 ovarian
# K-562 leukemia = system: K-562 leukemia
# KM12 colon = system: KM12 colon
# LOX IMVI melanoma = system: LOX IMVI melanoma
# M14 melanoma = system: M14 melanoma
# MALME-3M melanoma = system: MALME-3M melanoma
# MCF7 breast = system: MCF7 breast
# MDA-MB-231 breast = system: MDA-MB-231 breast
# MDA-MB-435 = system: MDA-MB-435
# MDA-MB-468 breast = system: MDA-MB-468 breast
# MOLT-4 leukemia = system: MOLT-4 leukemia
# NCI-H226 lung = system: NCI-H226 lung
# NCI-H23 lung = system: NCI-H23 lung
# NCI-H460 lung = system: NCI-H460 lung
# NCI-H522 lung = system: NCI-H522 lung
# OVCAR-3 ovarian = system: OVCAR-3 ovarian
# OVCAR-4 ovarian = system: OVCAR-4 ovarian
# OVCAR-5 ovarian = system: OVCAR-5 ovarian
# OVCAR-8 ovarian = system: OVCAR-8 ovarian
# PC-3 prostate = system: PC-3 prostate
# RPMI-8226 leukemia = system: RPMI-8226 leukemia
# RXF 393 renal = system: RXF 393 renal
# SF-268 CNS = system: SF-268 CNS
# SF-295 CNS = system: SF-295 CNS
# SF-539 CNS = system: SF-539 CNS
# SK-MEL-2 melanoma = system: SK-MEL-2 melanoma
# SK-MEL-28 melanoma = system: SK-MEL-28 melanoma
# SK-MEL-5 melanoma = system: SK-MEL-5 melanoma
# SK-OV-3 ovarian = system: SK-OV-3 ovarian
# SN12C renal = system: SN12C renal
# SNB-19 CNS = system: SNB-19 CNS
# SNB-75 CNS = system: SNB-75 CNS
# SR leukemia = system: SR leukemia
# SW-620 colon = system: SW-620 colon
# T-47D breast = system: T-47D breast
# TK-10 renal = system: TK-10 renal
# U251 CNS = system: U251 CNS
# UACC-257 melanoma = system: UACC-257 melanoma
# UACC-62 melanoma = system: UACC-62 melanoma
# UO-31 renal = system: UO-31 renal
smiles,measurement,setting,value
O=c1[nH]n(C(=S)N/N=C/c2ccccc2Cl)c(=O)c2ccccc12,GI50,786-0 renal,4.43 µM
same,TGI,786-0 renal,16 µM
same,GI50,A498 renal,3.66 µM
same,TGI,A498 renal,12.1 µM
same,GI50,A549 NSCLC,2.93 µM
same,TGI,A549 NSCLC,10.7 µM
same,GI50,ACHN renal,3.64 µM
same,TGI,ACHN renal,12.8 µM
same,GI50,BT-549 breast,3.11 µM
same,TGI,BT-549 breast,11.9 µM
same,GI50,CAKI-1 renal,3.7 µM
same,TGI,CAKI-1 renal,15.5 µM
same,GI50,CCRF-CEM leukemia,2.29 µM
same,TGI,CCRF-CEM leukemia,7.56 µM
same,GI50,COLO 205 colon,2.82 µM
same,TGI,COLO 205 colon,7.73 µM
same,GI50,DU-145 prostate,3.84 µM
same,TGI,DU-145 prostate,14.5 µM
same,GI50,EKVX NSCLC,2.73 µM
same,TGI,EKVX NSCLC,10.8 µM
same,GI50,HCC-2998 colon,2.27 µM
same,TGI,HCC-2998 colon,4.79 µM
same,GI50,HCT-116 colon,3.44 µM
same,TGI,HCT-116 colon,14.1 µM
same,GI50,HCT-15 colon,2.24 µM
same,TGI,HCT-15 colon,6.36 µM
same,GI50,HL-60(TB) leukemia,1.65 µM
same,TGI,HL-60(TB) leukemia,4.5 µM
same,GI50,HOP-62 NSCLC,3.14 µM
same,TGI,HOP-62 NSCLC,10.8 µM
same,GI50,HOP-92 NSCLC,2.41 µM
same,TGI,HOP-92 NSCLC,7.29 µM
same,GI50,HS 578T breast,2.65 µM
same,TGI,HS 578T breast,9.55 µM
same,GI50,HT29 colon,3.96 µM
same,TGI,HT29 colon,13.2 µM
same,GI50,IGROV1 ovarian,3.42 µM
same,TGI,IGROV1 ovarian,11.5 µM
same,GI50,K-562 leukemia,2.62 µM
same,TGI,K-562 leukemia,10.6 µM
same,GI50,KM12 colon,3.34 µM
same,TGI,KM12 colon,12.5 µM
same,GI50,LOX IMVI melanoma,2.87 µM
same,TGI,LOX IMVI melanoma,10.4 µM
same,GI50,M14 melanoma,2.96 µM
same,TGI,M14 melanoma,11.4 µM
same,GI50,MALME-3M melanoma,5.64 µM
same,TGI,MALME-3M melanoma,18.5 µM
same,GI50,MCF7 breast,2.4 µM
same,TGI,MCF7 breast,11.3 µM
same,GI50,MDA-MB-231 breast,2.99 µM
same,TGI,MDA-MB-231 breast,8.61 µM
same,GI50,MDA-MB-435,2.88 µM
same,TGI,MDA-MB-435,12.8 µM
same,GI50,MDA-MB-468 breast,1.83 µM
same,TGI,MDA-MB-468 breast,4.46 µM
same,GI50,MOLT-4 leukemia,1.82 µM
same,TGI,MOLT-4 leukemia,5.16 µM
same,GI50,NCI-H226 lung,2.88 µM
same,TGI,NCI-H226 lung,8.54 µM
same,GI50,NCI-H23 lung,1.97 µM
same,TGI,NCI-H23 lung,4.56 µM
same,GI50,NCI-H460 lung,2.11 µM
same,TGI,NCI-H460 lung,5.85 µM
same,GI50,NCI-H522 lung,2.06 µM
same,TGI,NCI-H522 lung,5.4 µM
same,GI50,OVCAR-3 ovarian,3.36 µM
same,TGI,OVCAR-3 ovarian,12.8 µM
same,GI50,OVCAR-4 ovarian,4.46 µM
same,TGI,OVCAR-4 ovarian,16.6 µM
same,GI50,OVCAR-5 ovarian,3.56 µM
same,TGI,OVCAR-5 ovarian,10.6 µM
same,GI50,OVCAR-8 ovarian,2.08 µM
same,TGI,OVCAR-8 ovarian,5.48 µM
same,GI50,PC-3 prostate,4.89 µM
same,TGI,PC-3 prostate,17.9 µM
same,GI50,RPMI-8226 leukemia,2.44 µM
same,TGI,RPMI-8226 leukemia,7.83 µM
same,GI50,RXF 393 renal,2.58 µM
same,TGI,RXF 393 renal,7.71 µM
same,GI50,SF-268 CNS,3.36 µM
same,TGI,SF-268 CNS,13.8 µM
same,GI50,SF-295 CNS,2.48 µM
same,TGI,SF-295 CNS,6.79 µM
same,GI50,SF-539 CNS,2.56 µM
same,TGI,SF-539 CNS,6.26 µM
same,GI50,SK-MEL-2 melanoma,1.85 µM
same,TGI,SK-MEL-2 melanoma,4.19 µM
same,GI50,SK-MEL-28 melanoma,4.6 µM
same,TGI,SK-MEL-28 melanoma,16.1 µM
same,GI50,SK-MEL-5 melanoma,3.03 µM
same,TGI,SK-MEL-5 melanoma,11.9 µM
same,GI50,SK-OV-3 ovarian,4.82 µM
same,TGI,SK-OV-3 ovarian,16.1 µM
same,GI50,SN12C renal,3.01 µM
same,TGI,SN12C renal,10.1 µM
same,GI50,SNB-19 CNS,3.87 µM
same,TGI,SNB-19 CNS,14.3 µM
same,GI50,SNB-75 CNS,2.08 µM
same,TGI,SNB-75 CNS,8.43 µM
same,GI50,SR leukemia,1.86 µM
same,TGI,SR leukemia,5.08 µM
same,GI50,SW-620 colon,3.01 µM
same,TGI,SW-620 colon,10.5 µM
same,GI50,T-47D breast,2.55 µM
same,TGI,T-47D breast,8.92 µM
same,GI50,TK-10 renal,5.05 µM
same,TGI,TK-10 renal,17.3 µM
same,GI50,U251 CNS,2.87 µM
same,TGI,U251 CNS,10.4 µM
same,GI50,UACC-257 melanoma,4.1 µM
same,TGI,UACC-257 melanoma,16.8 µM
same,GI50,UACC-62 melanoma,2.91 µM
same,TGI,UACC-62 melanoma,12.4 µM
same,GI50,UO-31 renal,3.78 µM
same,TGI,UO-31 renal,15 µM
